Like-named read-outs stand apart in the source and are kept apart here.
Key:
OVCAR-8 = assay: cells; assay type: cell-based; settings: Homo sapiens
SW-620 = assay: cells; assay type: cell-based; settings: Homo sapiens
SF-295 = assay: cells; assay type: cell-based; settings: Homo sapiens
CCRF-CEM = assay: cells; assay type: cell-based; settings: Homo sapiens, read-out: growth inhibition % (GI%)
SN12C = assay: cells; assay type: cell-based; settings: Homo sapiens, read-out: growth inhibition % (GI%)
SK-MEL-5 = assay: cells; assay type: cell-based; settings: Homo sapiens
ACHN = assay: cells; assay type: cell-based; settings: Homo sapiens, read-out: growth inhibition % (GI%)
K-562 = assay: cells; assay type: cell-based; settings: Homo sapiens
SF-268 = assay: cells; assay type: cell-based; settings: Homo sapiens
MALME-3M = assay: cells; assay type: cell-based; settings: Homo sapiens, read-out: growth inhibition % (GI%)
UO-31 = assay: cells; assay type: cell-based; settings: Homo sapiens
CAKI-1 = assay: cells; assay type: cell-based; settings: Homo sapiens
RXF 393 = assay: cells; assay type: cell-based; settings: Homo sapiens
M14 = assay: cells; assay type: cell-based; settings: Homo sapiens
EGFR = EGFR (Homo sapiens, UniProt P00533); assay: In vitro EGFR kinase inhibitory assay (Kinase-Glo Max luminescence kit); assay type: biochemical
Sequence of EGFR (P00533 669-1210): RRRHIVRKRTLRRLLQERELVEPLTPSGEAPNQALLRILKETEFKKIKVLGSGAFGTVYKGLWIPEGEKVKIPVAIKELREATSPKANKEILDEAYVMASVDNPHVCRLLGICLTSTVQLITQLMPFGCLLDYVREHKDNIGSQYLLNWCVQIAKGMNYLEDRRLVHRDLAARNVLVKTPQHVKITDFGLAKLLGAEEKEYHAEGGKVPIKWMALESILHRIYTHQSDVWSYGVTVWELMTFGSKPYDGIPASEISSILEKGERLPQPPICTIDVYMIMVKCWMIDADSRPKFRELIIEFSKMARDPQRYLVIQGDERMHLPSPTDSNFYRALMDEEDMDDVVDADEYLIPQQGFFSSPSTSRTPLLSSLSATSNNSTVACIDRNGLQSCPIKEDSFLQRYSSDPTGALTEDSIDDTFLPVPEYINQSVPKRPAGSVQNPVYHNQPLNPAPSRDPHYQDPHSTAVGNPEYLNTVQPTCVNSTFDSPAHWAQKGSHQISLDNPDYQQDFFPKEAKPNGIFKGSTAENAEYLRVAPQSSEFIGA

[1] = OVCAR-8, 10 μM, read-out: growth inhibition % (GI%)
[2] = SW-620, 10 μM, read-out: growth inhibition % (GI%)
[3] = SF-295, 10 μM, read-out: growth inhibition % (GI%)
[4] = SK-MEL-5, 10 μM, read-out: growth inhibition % (GI%)
[5] = K562, K-562, 10 μM, read-out: growth inhibition % (GI%)
[6] = SF-268, 10 μM, read-out: growth inhibition % (GI%)
[7] = UO-31, 10 μM, read-out: growth inhibition % (GI%)
[8] = OVCAR-8, read-out: growth inhibition % (GI%)
[9] = SW-620, read-out: growth inhibition % (GI%)
[10] = SF-295, read-out: growth inhibition % (GI%)
[11] = SK-MEL-5, read-out: growth inhibition % (GI%)
[12] = K562, read-out: growth inhibition % (GI%)
[13] = SF-268, read-out: growth inhibition % (GI%)
[14] = UO-31, read-out: growth inhibition % (GI%)
[15] = CAKI-1, read-out: growth inhibition % (GI%)
[16] = RXF 393, read-out: growth inhibition % (GI%)
[17] = M14, read-out: growth inhibition % (GI%)

| SMILES | inhibition at 10 µM (OVCAR-8; [1]) [%] | inhibition at 10 µM (SW-620; [2]) [%] | inhibition at 10 µM (SF-295; [3]) [%] | inhibition at 10 µM (CCRF-CEM; 10 μM) [%] | inhibition at 10 µM (SN12C; 10 μM) [%] | inhibition at 10 µM (SK-MEL-5; [4]) [%] | inhibition at 10 µM (ACHN; 10 μM) [%] | inhibition at 10 µM (K-562; [5]) [%] | inhibition at 10 µM (SF-268; [6]) [%] | inhibition at 10 µM (MALME-3M; MALME-3M, 10 μM) [%] | inhibition at 10 µM (UO-31; [7]) [%] | inhibition at 10 µM (OVCAR-8; [8]) [%] | inhibition at 10 µM (SW-620; [9]) [%] | inhibition at 10 µM (SF-295; [10]) [%] | inhibition at 10 µM (CCRF-CEM) [%] | inhibition at 10 µM (SN12C) [%] | inhibition at 10 µM (SK-MEL-5; [11]) [%] | inhibition at 10 µM (ACHN) [%] | inhibition at 10 µM (K-562; [12]) [%] | inhibition at 10 µM (SF-268; [13]) [%] | further results |
| --- | --- | --- | --- | --- | --- | --- | --- | --- | --- | --- | --- | --- | --- | --- | --- | --- | --- | --- | --- | --- | --- |
| O=C(CSc1nc2ccccc2c(=O)n1-c1ccc(Cl)cc1)NN=Cc1ccc(Oc2ccc(Br)cc2)cc1 [6e, N'-(4–(4-bromophenoxy)benzylidene)-2-((3–(4-chlorophenyl)-4-oxo-3,4-dihydroquinazolin-2-yl)thio)acetohydrazide] | < 15 | < 15 | < 15 | < 15 | < 15 | < 15 | < 15 | < 15 | < 15 | < 15 | 20.8 | – | – | – | – | – | – | – | – | – | – |
| CN1CCN(c2ccc(C=NNC(=O)CSc3nc4ccccc4c(=O)n3-c3ccc(Cl)cc3)cc2)CC1 [6l, 2-((3–(4-chlorophenyl)-4-oxo-3,4-dihydroquinazolin-2-yl)thio)-N'-(4–(4-methylpiperazin-1-yl)benzylidene)acetohydrazide] | < 15 | < 15 | < 15 | < 15 | < 15 | < 15 | < 15 | < 15 | < 15 | < 15 | < 15 | – | – | – | – | – | – | – | – | – | – |
| O=C(CSc1nc2ccccc2c(=O)n1-c1ccccc1)NN=Cc1ccc(N2CCCCC2)cc1 [6g, 2-((4-oxo-3-phenyl-3,4-dihydroquinazolin-2-yl)thio)-N'-(4-(piperidin-1-yl)benzylidene) acetohydrazide] | < 15 | < 15 | < 15 | < 15 | < 15 | < 15 | < 15 | 26.8 | < 15 | < 15 | 23.3 | – | – | – | – | – | – | – | – | – | inhibition at 10 µM (CAKI-1; CAKI-1, 10 μM, read-out: growth inhibition % (GI%)): 22%; melting point: 164 to 166 °C; inhibition at 10 µM (RXF 393; RXF 393, 10 μM, read-out: growth inhibition % (GI%)): < 15%; inhibition at 10 µM (M14; M14, 10 μM, read-out: growth inhibition % (GI%)): < 15% |
| O=C(CSc1nc2ccccc2c(=O)n1-c1ccc(Cl)cc1)NN=Cc1ccc(N2CCCCC2)cc1 [6j, 2-((3–(4-chlorophenyl)-4-oxo-3,4-dihydroquinazolin-2-yl)thio)-N'-(4-(piperidin-1-yl)benzylidene) acetohydrazide] | – | – | – | – | – | – | – | – | – | – | – | 34.7 | 34.1 | 23.6 | < 15 | 37.6 | < 15 | 82.6 | 26.4 | 65.3 | IC50 (EGFR): 478 ± 29 nM; inhibition at 10 µM (MALME-3M; Malme-3M): 35.8%; inhibition at 10 µM (UO-31; [14]): 47% |
| O=C(CSc1nc2ccccc2c(=O)n1-c1ccccc1)NN=Cc1ccc(Oc2ccc(Br)cc2)cc1 [6b, N'-(4–(4-bromophenoxy)benzylidene)-2-((4-oxo-3-phenyl-3,4-dihydroquinazolin-2-yl)thio) acetohydrazide] | – | – | – | – | – | – | – | – | – | – | – | 36.7 | 70.4 | 16.3 | 43.1 | 59.3 | 40.9 | < 15 | 37.5 | 15.7 | inhibition at 10 µM (CAKI-1; [15]): 29.2%; inhibition at 10 µM (RXF 393; [16]): 37.8%; IC50 (EGFR): 487 ± 30 nM; inhibition at 10 µM (MALME-3M; Malme-3M): 45.1%; inhibition at 10 µM (UO-31; [14]): < 15%; inhibition at 10 µM (M14; [17]): 43.7% |
| COc1ccc(Oc2ccc(C=NNC(=O)CSc3nc4ccccc4c(=O)n3-c3ccccc3)cc2)cc1 [6c, N'-(4–(4-methoxyphenoxy)benzylidene)-2-((4-oxo-3-phenyl-3,4-dihydroquinazolin-2-yl)thio)acetohydrazide] | < 15 | < 15 | < 15 | < 15 | < 15 | < 15 | < 15 | < 15 | < 15 | < 15 | < 15 | – | – | – | – | – | – | – | – | – | – |
| O=C(CSc1nc2ccccc2c(=O)n1-c1ccccc1)NN=Cc1ccc(Oc2ccc(Cl)cc2)cc1 [6a, N'-(4–(4-chlorophenoxy)benzylidene)-2-((4-oxo-3-phenyl-3,4-dihydroquinazolin-2-yl)thio)acetohydrazide] | – | – | – | – | – | – | – | – | – | – | – | 40.8 | 56.9 | 16.2 | 49.6 | 73.1 | 28.8 | 25.5 | 38.8 | < 15 | inhibition at 10 µM (CAKI-1; [15]): 40.8%; inhibition at 10 µM (RXF 393; [16]): 58%; IC50 (EGFR): 202 ± 12 nM; inhibition at 10 µM (MALME-3M; Malme-3M): 48.7%; inhibition at 10 µM (UO-31; [14]): 18.8%; inhibition at 10 µM (M14; [17]): 51.2% |
| O=C(CSc1nc2ccccc2c(=O)n1-c1ccc(Cl)cc1)NN=Cc1ccc(N2CCOCC2)cc1 [6k, 2-((3–(4-chlorophenyl)-4-oxo-3,4-dihydroquinazolin-2-yl)thio)-N'-(4-morpholinobenzylidene) acetohydrazide] | < 15 | < 15 | < 15 | < 15 | < 15 | < 15 | < 15 | < 15 | < 15 | < 15 | < 15 | – | – | – | – | – | – | – | – | – | – |
| CN1CCN(c2ccc(C=NNC(=O)CSc3nc4ccccc4c(=O)n3-c3ccccc3)cc2)CC1 [6i, N'-(4–(4-methylpiperazin-1-yl)benzylidene)-2-((4-oxo-3-phenyl-3,4-dihydroquinazolin-2-yl)thio) acetohydrazide] | < 15 | < 15 | < 15 | < 15 | < 15 | < 15 | < 15 | < 15 | < 15 | < 15 | < 15 | – | – | – | – | – | – | – | – | – | – |
| COc1ccc(Oc2ccc(C=NNC(=O)CSc3nc4ccccc4c(=O)n3-c3ccc(Cl)cc3)cc2)cc1 [6f, 2-((3–(4-chlorophenyl)-4-oxo-3,4-dihydroquinazolin-2-yl)thio)-N'-(4–(4-methoxyphenoxy)benzylidene)acetohydrazide] | – | – | – | – | – | – | – | – | – | – | – | < 15 | 55.6 | 32.3 | 36.5 | 47.3 | 22 | 92.2 | 41.6 | 42.1 | IC50 (EGFR): 133 ± 8 nM; inhibition at 10 µM (MALME-3M; Malme-3M): 36.1%; inhibition at 10 µM (UO-31; [14]): 52.3% |
| O=C(CSc1nc2ccccc2c(=O)n1-c1ccccc1)NN=Cc1ccc(N2CCOCC2)cc1 [6h, N'-(4-morpholinobenzylidene)-2-((4-oxo-3-phenyl-3,4-dihydroquinazolin-2-yl)thio)acetohydrazide] | < 15 | < 15 | < 15 | < 15 | < 15 | < 15 | < 15 | < 15 | < 15 | < 15 | < 15 | – | – | – | – | – | – | – | – | – | – |

From paper PMC9518264, “Design and synthesis of novel quinazolinone-based derivatives as EGFR inhibitors with antitumor activity” (Journal of Enzyme Inhibition and Medicinal Chemistry, 2022)
